According to ChEMBL document CHEMBL3885881, “DrugMatrix”:

Organism: Rattus norvegicus
Test: DrugMatrix - Regimen: Daily Repeat
Type: toxicity, organism-based, Sprague-Dawley
Design: regimen Daily Repeat, gender Male, age 6-8 weeks
Conditions: in vivo, po, route oral GAVAGE, vehicle .5 % CMC; for BASOPHIL / EOSINOPHIL / ERYTHROCYTE COUNT / HEMATOCRIT / HEMOGLOBIN / LEUKOCYTE COUNT / LYMPHOCYTE / MEAN CORPUSCULAR HEMOGLOBIN / MEAN CORPUSCULAR HEMOGLOBIN CONCENTRATION / MEAN CORPUSCULAR VOLUME / MONOCYTE / NEUTROPHIL / PLATELET COUNT: tissue Blood; for ALANINE AMINOTRANSFERASE / ALBUMIN / ALKALINE PHOSPHATASE / ASPARTATE AMINOTRANSFERASE / BLOOD UREA NITROGEN / CHLORIDE / CHOLESTEROL / CREATINE PHOSPHOKINASE / CREATININE / GLUCOSE / PHOSPHORUS / POTASSIUM / SODIUM / TOTAL BILIRUBIN / TOTAL PROTEIN: tissue Plasma
[1] = 0 mg/kg, 72 h, dose level Control, time 3 day
[2] = 0 mg/kg, 120 h, dose level Control, time 5 day
[3] = 1 mg/kg, 72 h, dose level Low, time 3 day
[4] = 1 mg/kg, 120 h, dose level Low, time 5 day
[5] = 22 mg/kg, 72 h, dose level High, time 3 day
[6] = 22 mg/kg, 120 h, dose level High, time 5 day

In the case of `N=C(N)NC(=O)c1nc(Cl)c(N)nc1N` [AMILORIDE], the BASOPHIL [1] is reported as 0%, the EOSINOPHIL [1] is reported as 0.33% and the “ERYTHROCYTE COUNT” value [1] is reported as 6.2 x10E6/uL. The HEMATOCRIT [1] was 38.08%, the HEMOGLOBIN [1] was 14.92 G/DL and the “LEUKOCYTE COUNT” value [1] was 11.13 x10E3/uL. For the same compound, the LYMPHOCYTE [1] was 76%, the “MEAN CORPUSCULAR HEMOGLOBIN” value [1] was 24.1 pg and the “MEAN CORPUSCULAR HEMOGLOBIN CONCENTRATION” value [1] was 39.17 G/DL. For the same compound, the “MEAN CORPUSCULAR VOLUME” value [1] was 61.48 fL, the MONOCYTE [1] was 3.83% and the NEUTROPHIL [1] was 19.83%. The “PLATELET COUNT” value [1] was 1327.5 x10E3/uL, the “ALANINE AMINOTRANSFERASE” value [1] was 40.17 u/L and the ALBUMIN [1] was 4.07 G/DL. For the same compound, the “ALKALINE PHOSPHATASE” value [1] was 372 u/L, the “ASPARTATE AMINOTRANSFERASE” value [1] was 67.17 u/L and the “BLOOD UREA NITROGEN” value [1] was 18.83 mg/dL. The CHLORIDE [1] was 105.17 MEQ/L, the CHOLESTEROL [1] was 78.17 mg/dL and the “CREATINE PHOSPHOKINASE” value [1] was 149.17 u/L. It also gave a CREATININE [1] of 0.57 mg/dL, a GLUCOSE [1] of 185.17 mg/dL and a PHOSPHORUS [1] of 11.43 mg/dL. The POTASSIUM [1] was 6.78 MEQ/L, the SODIUM [1] was 152.83 MEQ/L and the “TOTAL BILIRUBIN” value [1] was 0.4 mg/dL. For the same compound, the “TOTAL PROTEIN” value [1] was 6.87 G/DL, the BASOPHIL [2] was 0% and the EOSINOPHIL [2] was 0%. For the same compound, the “ERYTHROCYTE COUNT” value [2] was 6.05 x10E6/uL, the HEMATOCRIT [2] was 36.55% and the HEMOGLOBIN [2] was 14.7 G/DL. The “LEUKOCYTE COUNT” value [2] was 11.8 x10E3/uL, the LYMPHOCYTE [2] was 86.83% and the “MEAN CORPUSCULAR HEMOGLOBIN” value [2] was 24.37 pg. For the same compound, the “MEAN CORPUSCULAR HEMOGLOBIN CONCENTRATION” value [2] was 40.32 G/DL, the “MEAN CORPUSCULAR VOLUME” value [2] was 60.47 fL and the MONOCYTE [2] was 0.83%. The NEUTROPHIL [2] was 12.33%, the “PLATELET COUNT” value [2] was 1177 x10E3/uL and the “ALANINE AMINOTRANSFERASE” value [2] was 41.83 u/L. The ALBUMIN [2] was 3.75 G/DL, the “ALKALINE PHOSPHATASE” value [2] was 377.5 u/L and the “ASPARTATE AMINOTRANSFERASE” value [2] was 60.83 u/L. The “BLOOD UREA NITROGEN” value [2] was 16 mg/dL, the CHLORIDE [2] was 105.67 MEQ/L and the CHOLESTEROL [2] was 67.83 mg/dL. For the same compound, the “CREATINE PHOSPHOKINASE” value [2] was 120.33 u/L, the CREATININE [2] was 0.6 mg/dL and the GLUCOSE [2] was 167.67 mg/dL. For the same compound, the PHOSPHORUS [2] was 10.03 mg/dL, the POTASSIUM [2] was 6.68 MEQ/L and the SODIUM [2] was 150.5 MEQ/L. For the same compound, the “TOTAL BILIRUBIN” value [2] was 0.57 mg/dL, the “TOTAL PROTEIN” value [2] was 6.25 G/DL and the BASOPHIL [3] was 0%. The EOSINOPHIL [3] was 1.33%, the “ERYTHROCYTE COUNT” value [3] was 6.13 x10E6/uL and the HEMATOCRIT [3] was 37.63%. For the same compound, the HEMOGLOBIN [3] was 14.93 G/DL, the “LEUKOCYTE COUNT” value [3] was 12.73 x10E3/uL and the LYMPHOCYTE [3] was 84%. The “MEAN CORPUSCULAR HEMOGLOBIN” value [3] was 24.37 pg, the “MEAN CORPUSCULAR HEMOGLOBIN CONCENTRATION” value [3] was 39.67 G/DL and the “MEAN CORPUSCULAR VOLUME” value [3] was 61.4 fL. The MONOCYTE [3] was 0.67%, the NEUTROPHIL [3] was 14% and the “PLATELET COUNT” value [3] was 1265 x10E3/uL. The “ALANINE AMINOTRANSFERASE” value [3] was 50 u/L, the ALBUMIN [3] was 3.87 G/DL and the “ALKALINE PHOSPHATASE” value [3] was 414 u/L. For the same compound, the “ASPARTATE AMINOTRANSFERASE” value [3] was 63.67 u/L, the “BLOOD UREA NITROGEN” value [3] was 15.67 mg/dL and the CHLORIDE [3] was 107 MEQ/L. For the same compound, the CHOLESTEROL [3] was 81.33 mg/dL, the “CREATINE PHOSPHOKINASE” value [3] was 135.67 u/L and the CREATININE [3] was 0.57 mg/dL. The GLUCOSE [3] was 168.67 mg/dL, the PHOSPHORUS [3] was 10.33 mg/dL and the POTASSIUM [3] was 6.13 MEQ/L. The SODIUM [3] was 152.33 MEQ/L, the “TOTAL BILIRUBIN” value [3] was 0.43 mg/dL and the “TOTAL PROTEIN” value [3] was 6.37 G/DL. The BASOPHIL [4] was 0%, the EOSINOPHIL [4] was 0% and the “ERYTHROCYTE COUNT” value [4] was 5.82 x10E6/uL. The HEMATOCRIT [4] was 35.67%, the HEMOGLOBIN [4] was 14.2 G/DL and the “LEUKOCYTE COUNT” value [4] was 12.4 x10E3/uL. For the same compound, the LYMPHOCYTE [4] was 85.33%, the “MEAN CORPUSCULAR HEMOGLOBIN” value [4] was 24.43 pg and the “MEAN CORPUSCULAR HEMOGLOBIN CONCENTRATION” value [4] was 39.93 G/DL. For the same compound, the “MEAN CORPUSCULAR VOLUME” value [4] was 61.3 fL, the MONOCYTE [4] was 2% and the NEUTROPHIL [4] was 12.67%. The “PLATELET COUNT” value [4] was 1224 x10E3/uL, the “ALANINE AMINOTRANSFERASE” value [4] was 35.33 u/L and the ALBUMIN [4] was 3.67 G/DL. The “ALKALINE PHOSPHATASE” value [4] was 386.67 u/L, the “ASPARTATE AMINOTRANSFERASE” value [4] was 62 u/L and the “BLOOD UREA NITROGEN” value [4] was 15 mg/dL. The CHLORIDE [4] was 105.33 MEQ/L, the CHOLESTEROL [4] was 74 mg/dL and the “CREATINE PHOSPHOKINASE” value [4] was 130.33 u/L. For the same compound, the CREATININE [4] was 0.63 mg/dL, the GLUCOSE [4] was 171 mg/dL and the PHOSPHORUS [4] was 10.63 mg/dL. The POTASSIUM [4] was 6.7 MEQ/L, the SODIUM [4] was 150 MEQ/L and the “TOTAL BILIRUBIN” value [4] was 0.5 mg/dL. The “TOTAL PROTEIN” value [4] was 6.1 G/DL, the BASOPHIL [5] was 0% and the EOSINOPHIL [5] was 1%. The “ERYTHROCYTE COUNT” value [5] was 5.75 x10E6/uL, the HEMATOCRIT [5] was 35.27% and the HEMOGLOBIN [5] was 13.6 G/DL. For the same compound, the “LEUKOCYTE COUNT” value [5] was 10.47 x10E3/uL, the LYMPHOCYTE [5] was 85% and the “MEAN CORPUSCULAR HEMOGLOBIN” value [5] was 23.63 pg. The “MEAN CORPUSCULAR HEMOGLOBIN CONCENTRATION” value [5] was 38.63 G/DL, the “MEAN CORPUSCULAR VOLUME” value [5] was 61.17 fL and the MONOCYTE [5] was 1.33%. The NEUTROPHIL [5] was 12.67%, the “PLATELET COUNT” value [5] was 1066.33 x10E3/uL and the “ALANINE AMINOTRANSFERASE” value [5] was 46 u/L. The ALBUMIN [5] was 4.03 G/DL, the “ALKALINE PHOSPHATASE” value [5] was 373.67 u/L and the “ASPARTATE AMINOTRANSFERASE” value [5] was 68.33 u/L. For the same compound, the “BLOOD UREA NITROGEN” value [5] was 23.33 mg/dL, the CHLORIDE [5] was 102.67 MEQ/L and the CHOLESTEROL [5] was 70 mg/dL. The “CREATINE PHOSPHOKINASE” value [5] was 117 u/L, the CREATININE [5] was 0.7 mg/dL and the GLUCOSE [5] was 167 mg/dL. For the same compound, the PHOSPHORUS [5] was 11.37 mg/dL, the POTASSIUM [5] was 7.33 MEQ/L and the SODIUM [5] was 146 MEQ/L. The “TOTAL BILIRUBIN” value [5] was 0.57 mg/dL, the “TOTAL PROTEIN” value [5] was 6.63 G/DL and the BASOPHIL [6] was 0%. The EOSINOPHIL [6] was 0%, the “ERYTHROCYTE COUNT” value [6] was 6.16 x10E6/uL and the HEMATOCRIT [6] was 36.37%. For the same compound, the HEMOGLOBIN [6] was 14.6 G/DL, the “LEUKOCYTE COUNT” value [6] was 18.57 x10E3/uL and the LYMPHOCYTE [6] was 86%. For the same compound, the “MEAN CORPUSCULAR HEMOGLOBIN” value [6] was 23.73 pg, the “MEAN CORPUSCULAR HEMOGLOBIN CONCENTRATION” value [6] was 40.17 G/DL and the “MEAN CORPUSCULAR VOLUME” value [6] was 59.03 fL. The MONOCYTE [6] was 1.33%, the NEUTROPHIL [6] was 11.67% and the “PLATELET COUNT” value [6] was 1100.67 x10E3/uL. For the same compound, the “ALANINE AMINOTRANSFERASE” value [6] was 47.33 u/L, the ALBUMIN [6] was 3.77 G/DL and the “ALKALINE PHOSPHATASE” value [6] was 450.67 u/L. The “ASPARTATE AMINOTRANSFERASE” value [6] was 62 u/L, the “BLOOD UREA NITROGEN” value [6] was 22.33 mg/dL and the CHLORIDE [6] was 104.67 MEQ/L. The CHOLESTEROL [6] was 76 mg/dL, the “CREATINE PHOSPHOKINASE” value [6] was 128.33 u/L and the CREATININE [6] was 0.63 mg/dL. For the same compound, the GLUCOSE [6] was 167.67 mg/dL, the PHOSPHORUS [6] was 10.73 mg/dL and the POTASSIUM [6] was 6.83 MEQ/L. The SODIUM [6] was 148.33 MEQ/L, the “TOTAL BILIRUBIN” value [6] was 0.47 mg/dL and the “TOTAL PROTEIN” value [6] was 6.07 G/DL.
